Source: patent publication US9657057B2, “Dipeptide and tripeptide epoxy ketone protease inhibitors” (Onyx Therapeutics, Inc., priority 2013, dated 2017)
Values after ≈ are worked out from the molar mass of the structure shown.

Legend:
LMP7 = molecular target: T1, LMP7 (Homo sapiens, UniProt P20618+P28062); experiment: ProCISE proteasome subunit assay, LMP7; type: biochemical; details: MOLT4 lysate Hu 1 h
T1 construct: endogenous in cells; host or cells: MOLT-4
In short: (§1)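 MOLT-4 cell lysate was incubated with compound for 1 h at 25° C, then a subunit-binding probe was applied; probe-bound subunits were pulled down on streptavidin beads after guanidine denaturation and detected with subunit-specific antibodies by HRP chemiluminescence. Signal was normalized to protein and expressed as percent of DMSO control to fit IC50.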

β5 = molecular target: T2, β5 (Homo sapiens, UniProt P20618+P28074); experiment: ProCISE proteasome subunit assay, β5; type: biochemical; details: MOLT4 lysate Hu 1 h
T2 construct: endogenous in cells; host or cells: MOLT-4
In short: as §1

Solubility pH 7 = type: physicochemical; details: pH 7, aqueous buffer
[1] = molecular target: i20S (20S immunoproteasome) (Homo sapiens, UniProt P20618+P28062); experiment: 20S proteasome assay, chymotrypsin-like activity (LLVY), i20S; type: biochemical; details: LLVY i20S Hu 1 h CONT: IC50 (nM), succinyl-Leu-Leu-Val-Tyr-AMC
Excerpt: (§2) Assay buffer consisted of TE buffer [20 mmol/L Tris (pH 8.0), 0.5 mmol/L EDTA] with (20S) or without (cell lysate) 0.03% SDS. Reactions were initiated by enzyme or lysate addition and monitored for AMC product formation at 27jC with a plate-based spectofluorometer (Tecan).

[2] = molecular target: c20S (constitutive 20S proteasome) (Homo sapiens, UniProt P20618+P28074); experiment: 20S proteasome assay, chymotrypsin-like activity (LLVY), c20S; type: biochemical; details: LLVY c20S Hu 1 h CONT: IC50 (nM), succinyl-Leu-Leu-Val-Tyr-AMC
Excerpt: as §2

| Structure (SMILES) | IC50 (LMP7) [nM] | IC50 (β5) [nM] | solubility (Solubility pH 7) [µg/mL] | IC50 [1] [nM] | IC50 [2] [nM] |
| --- | --- | --- | --- | --- | --- |
| COc1ccc(C[C@H](NC(=O)[C@@H](C)NC(=O)CC(C)(C)O)C(=O)N[C@@H](Cc2ccccc2)C(=O)[C@@]2(C)CO2)cc1 [Compound C-2056, 3-hydroxy-N—((R)-1-(((S)-3-(4-methoxyphenyl)-1-(((S)-1-((R)-2-methyloxiran-2-yl)-1-oxo-3-phenylpropan-2-yl)amino)-1-oxopropan-2-yl)amino)-1-oxopropan-2-yl)-3-methylbutanamide] | 52.2 | 291 | 3730 (≈ 6.73 mM) | 28.9 | 191 |
| COc1ccc(C[C@H](NC(=O)[C@@H](C)NC(=O)CC(C)(C)O)C(=O)N[C@@H](CC2CCCC2)C(=O)[C@@]2(C)CO2)cc1O [Compound C-2059, N—((R)-1-(((S)-1-(((S)-3-cyclopentyl-1-((R)-2-methyloxiran-2-yl)-1-oxopropan-2-yl)amino)-3-(3-hydroxy-4-methoxyphenyl)-1-oxopropan-2-yl)amino)-1-oxopropan-2-yl)-3-hydroxy-3-methylbutanamide] | 71 | 534 | 2450 (≈ 4.36 mM) | 15.9 | 246 |
| COc1ccc(C[C@H](NC(=O)[C@@H](C)NC(=O)CC(C)(C)O)C(=O)N[C@@H](CC2=CCCC2)C(=O)[C@@]2(C)CO2)cc1O [Compound C-2060, N—((R)-1-(((S)-1-(((S)-3-(cyclopent-1-en-1-yl)-1-((R)-2-methyloxiran-2-yl)-1-oxopropan-2-yl)amino)-3-(3-hydroxy-4-methoxyphenyl)-1-oxopropan-2-yl)amino)-1-oxopropan-2-yl)-3-hydroxy-3-methylbutanamide] | 60.4 | 368 | 3010 (≈ 5.39 mM) | 17.3 | 201 |
| COc1ccc(C[C@H](NC(=O)[C@@]2(C)CCC(=O)N2)C(=O)N[C@@H](Cc2ccccc2)C(=O)[C@@]2(C)CO2)cc1 [Compound C-3010, (R)—N—((S)-3-(4-methoxyphenyl)-1-(((S)-1-((R)-2-methyloxiran-2-yl)-1-oxo-3-phenylpropan-2-yl)amino)-1-oxopropan-2-yl)-2-methyl-5-oxopyrrolidine-2-carboxamide] | 1160 | 4300 | 1380 (≈ 2.72 mM) | 1610 | 4080 |
| COc1ccc(C[C@H](NC(=O)[C@H]2CCC(=O)N2)C(=O)N[C@@H](Cc2ccccc2)C(=O)[C@@]2(C)CO2)cc1 [Compound C-3012, (R)—N—((S)-3-(4-methoxyphenyl)-1-(((S)-1-((R)-2-methyloxiran-2-yl)-1-oxo-3-phenylpropan-2-yl)amino)-1-oxopropan-2-yl)-5-oxopyrrolidine-2-carboxamide] | 2750 | 6040 | 4410 (≈ 8.93 mM) | 4790 | 14500 |
| COc1ccc(C[C@H](NC(=O)[C@@H]2CCC(=O)N2)C(=O)N[C@@H](Cc2ccccc2)C(=O)[C@@]2(C)CO2)cc1 [Compound C-3013, (S)—N—((S)-3-(4-methoxyphenyl)-1-(((S)-1-((R)-2-methyloxiran-2-yl)-1-oxo-3-phenylpropan-2-yl)amino)-1-oxopropan-2-yl)-5-oxopyrrolidine-2-carboxamide] | 3480 | 14200 | 1910 (≈ 3.87 mM) | 4050 | 15900 |
